Assay results from patent US12590067B2, “Herbicidal cyclohexanedione derivatives” (SYNGENTA CROP PROTECTION AG, priority 2019, dated 2026).

How the values were obtained:
Assay in all cases: Glasshouse herbicidal test, pre- and post-emergence, percentage damage to the plant
Type in all cases: in vivo
Lolium perenne (LOLPE) = settings: 250 g/h, evaluated after 13 days; for LOLPE POST percentage damage caused to the plant (five-point scale): post-emergence; for LOLPE PRE percentage damage caused to the plant (five-point scale): pre-emergence
Procedure: (§1) Seeds of a variety of test species are sown in standard soil in pots (Lolium perenne (LOLPE), Setaria faberi (SETFA), Alopecurus myosuroides (ALOMY), Echinochloa crus-galli (ECHCG), Avena fatua (AVEFA)). After cultivation for one day (pre-emergence) or after 8 days cultivation (post-emergence) under controlled conditions in a glasshouse (at 24/16° C., day/night; 14 hours light; 65% humidity), the plants are sprayed with an aqueous spray solution derived from the formulation of the technical active ingredient in acetone/water (50:50) solution containing 0.5% Tween 20 (polyoxyethelyene sorbitan monolaurate, CAS RN 9005-64-5). Compounds are applied at 250 g/h. The test plants are then grown in a glasshouse under controlled conditions in a glasshouse (at 24/16° C., day/night; 14 hours light; 65% humidity) and watered twice daily. After 13 days for pre and post-emergence, the test is evaluated for the percentage damage caused to the plant. The biological activities are shown in the following table on a five-point scale (5=80-100%; 4=60-79%; 3=40-59%; 2=20-39%; 1=0-19%).

[1] = system: Alopecurus myosuroides (ALOMY); settings: 250 g/h, evaluated after 13 days; for ALOMY POST percentage damage caused to the plant (five-point scale): post-emergence; for ALOMY PRE percentage damage caused to the plant (five-point scale): pre-emergence
Procedure: as §1

[2] = system: Echinochloa crus-galli (ECHCG); settings: 250 g/h, evaluated after 13 days; for ECHCG POST percentage damage caused to the plant (five-point scale): post-emergence; for ECHCG PRE percentage damage caused to the plant (five-point scale): pre-emergence
Procedure: as §1

Avena fatua (AVEFA) = settings: 250 g/h, evaluated after 13 days; for AVEFA POST percentage damage caused to the plant (five-point scale): post-emergence; for AVEFA PRE percentage damage caused to the plant (five-point scale): pre-emergence
Procedure: as §1

Setaria faberi (SETFA) = settings: 250 g/h, evaluated after 13 days; for SETFA POST percentage damage caused to the plant (five-point scale): post-emergence; for SETFA PRE percentage damage caused to the plant (five-point scale): pre-emergence
Procedure: as §1

| Compound | LOLPE POST percentage damage caused to the plant (five-point scale) (Lolium perenne (LOLPE)) | LOLPE PRE percentage damage caused to the plant (five-point scale) (Lolium perenne (LOLPE)) | ALOMY POST percentage damage caused to the plant (five-point scale) [1] | ALOMY PRE percentage damage caused to the plant (five-point scale) [1] | ECHCG POST percentage damage caused to the plant (five-point scale) [2] | ECHCG PRE percentage damage caused to the plant (five-point scale) [2] | AVEFA POST percentage damage caused to the plant (five-point scale) (Avena fatua (AVEFA)) | AVEFA PRE percentage damage caused to the plant (five-point scale) (Avena fatua (AVEFA)) | SETFA POST percentage damage caused to the plant (five-point scale) (Setaria faberi (SETFA)) | SETFA PRE percentage damage caused to the plant (five-point scale) (Setaria faberi (SETFA)) |
| --- | --- | --- | --- | --- | --- | --- | --- | --- | --- | --- |
| CC#Cc1cc(Cl)c(C2C(=O)CC3(CCN(C(=O)COC)CC3)CC2=O)c(OC)c1 [Compound A5] | 5 (5=80-100%) | 5 (5=80-100%) | 5 (5=80-100%) | 5 (5=80-100%) | 5 (5=80-100%) | 5 (5=80-100%) | 5 (5=80-100%) | 5 (5=80-100%) | 5 (5=80-100%) | 5 (5=80-100%) |
| COc1cc(-c2ccc(C#N)cn2)cc(Cl)c1C1C(=O)CC2(CCN(C(C)=O)CC2)CC1=O [Compound A13] | 5 (5=80-100%) | 1 (1=0-19%) | 5 (5=80-100%) | 3 (3=40-59%) | 5 (5=80-100%) | 5 (5=80-100%) | 5 (5=80-100%) | 2 (2=20-39%) | 5 (5=80-100%) | 2 (2=20-39%) |
| CC#Cc1cc(Cl)c(C2C(=O)CC3(CCN(C(=O)C4CC4)CC3)CC2=O)c(OC)c1 [Compound A8] | 5 (5=80-100%) | 5 (5=80-100%) | 5 (5=80-100%) | 5 (5=80-100%) | 5 (5=80-100%) | 5 (5=80-100%) | 5 (5=80-100%) | 5 (5=80-100%) | 5 (5=80-100%) | 5 (5=80-100%) |
| COc1cc(-c2ccc(C#N)cn2)cc(Cl)c1C1C(=O)CC2(CCN(C(=O)C3CC3)CC2)CC1=O [Compound A35] | 5 (5=80-100%) | 5 (5=80-100%) | 5 (5=80-100%) | 5 (5=80-100%) | 5 (5=80-100%) | 5 (5=80-100%) | 5 (5=80-100%) | 5 (5=80-100%) | 5 (5=80-100%) | 5 (5=80-100%) |
| CC#Cc1cc(Cl)c(C2C(=O)CC3(CCN(C(=O)NC(=O)c4ccccn4)CC3)CC2=O)c(Cl)c1 [Compound A17] | 5 (5=80-100%) | 2 (2=20-39%) | 2 (2=20-39%) | 2 (2=20-39%) | 5 (5=80-100%) | 3 (3=40-59%) | 5 (5=80-100%) | 2 (2=20-39%) | 5 (5=80-100%) | 4 (4=60-79%) |
| CC(=O)N1CCC2(CC1)CC(=O)C(c1c(C)cc(-c3ccc(C#N)cn3)cc1Cl)C(=O)C2 [Compound A56] | 5 (5=80-100%) | 5 (5=80-100%) | 5 (5=80-100%) | 3 (3=40-59%) | 5 (5=80-100%) | 4 (4=60-79%) | 5 (5=80-100%) | 3 (3=40-59%) | 5 (5=80-100%) | 5 (5=80-100%) |
| CC#Cc1cc(Cl)c(C2C(=O)CC3(CCN(C(=O)CC#N)CC3)CC2=O)c(Cl)c1 [Compound A15] | 5 (5=80-100%) | 5 (5=80-100%) | 5 (5=80-100%) | 5 (5=80-100%) | 5 (5=80-100%) | 5 (5=80-100%) | 5 (5=80-100%) | 5 (5=80-100%) | 5 (5=80-100%) | 5 (5=80-100%) |
| Cc1cc(-c2ccc(C#N)cn2)cc(Cl)c1C1C(=O)CC2(CCN(C(=O)C3CC3)CC2)CC1=O [Compound A57] | 5 (5=80-100%) | 5 (5=80-100%) | 5 (5=80-100%) | 5 (5=80-100%) | 5 (5=80-100%) | 5 (5=80-100%) | 5 (5=80-100%) | 5 (5=80-100%) | 5 (5=80-100%) | 5 (5=80-100%) |
| CC#Cc1cc(Cl)c(C2C(=O)CC3(CCN(C(=O)NC(=O)C(C)(C)C)CC3)CC2=O)c(OC)c1 [Compound A7] | 5 (5=80-100%) | 5 (5=80-100%) | 5 (5=80-100%) | 5 (5=80-100%) | 5 (5=80-100%) | 5 (5=80-100%) | 5 (5=80-100%) | 5 (5=80-100%) | 5 (5=80-100%) | 5 (5=80-100%) |
| CC#Cc1cc(Cl)c(C2C(=O)CC3(CCN(C(=O)COC(F)F)CC3)CC2=O)c(Cl)c1 [Compound A18] | 5 (5=80-100%) | 5 (5=80-100%) | 5 (5=80-100%) | 5 (5=80-100%) | 5 (5=80-100%) | 5 (5=80-100%) | 5 (5=80-100%) | 5 (5=80-100%) | 5 (5=80-100%) | 5 (5=80-100%) |
| CC#Cc1cc(Cl)c(C2C(=O)CC3(CCN(C(=O)c4ccccc4)CC3)CC2=O)c(OC)c1 [Compound A3, 3-benzoyl-9-(2-chloro-6-methoxy-4-prop-1-ynyl-phenyl)-3-azaspiro[5.5]undecane-8,10-dione] | 5 (5=80-100%) | 5 (5=80-100%) | 5 (5=80-100%) | 5 (5=80-100%) | 5 (5=80-100%) | 5 (5=80-100%) | 5 (5=80-100%) | 5 (5=80-100%) | 5 (5=80-100%) | 5 (5=80-100%) |
| CC#Cc1cc(Cl)c(C2C(=O)CC3(CCN(C(=O)CC#N)CC3)CC2=O)c(OC)c1 [Compound A12] | 5 (5=80-100%) | 5 (5=80-100%) | 5 (5=80-100%) | 5 (5=80-100%) | 5 (5=80-100%) | 5 (5=80-100%) | 5 (5=80-100%) | 5 (5=80-100%) | 5 (5=80-100%) | 5 (5=80-100%) |
